The values below come from patent US7244855B2, “Synthesis of oligomeric epicatechin and catechin-derived procyanidins” (Mars, Inc., priority 2002, dated 2007).

Data set [1] has as its system MDA MB-231 human breast cancer cells. The data set is described as follows: Cell cycle analysis by flow cytometry (Vindelov method). Type of data set: cell-based. The following applies: for Increase in G0/G1 arrest, synthetic compared to natural procyanidin: see Table 2; for Effect on cell cycle (G0/G1 arrest), in words: procyanidin-treated MDA MB-231 cells, see Table 1. Here is the method: The MDA MB-231 cell line was P53 defective, ER negative, and constitutively expressed K-ras. Cells were cultured in T-75s in IMEM medium (BioFluids Inc.) supplemented with 10% FBS (Gibco BRL Life Technologies) in a humidified 5% CO2 atmosphere at 37° C. […] See Vindelov, L. et al., “A Detergent Trypsin Method for the Preparation of Nuclei for Flow Cytometric DNA Analysis”, Cytometry, 1983, 3, 323–327. Analyses were performed by the Lombardi Cancer Center Flow Cytometry Core Facility at Georgetown University Medical Center.
(A flow cytometer gives signals particle by particle.)

In data set [2] the test system is human breast cancer cell lines. The data set is described as follows: Cytotoxicity assay (microculture tetrazolium assay modified for crystal violet). Format: cell-based. Here is the method: The human breast cancer cell lines MCF-7, SKBR-3, MDA 435, and MDA MB-231 were obtained from the Lombardi Cancer Center Cell Culture Core Facility at Georgetown University Medical Center. The MDA MB-231 cell line was P53 defective, ER negative, and constitutively expressed K-ras. Cells were cultured in T-75s in IMEM medium (BioFluids Inc.) supplemented with 10% FBS (Gibco BRL Life Technologies) in a humidified 5% CO2 atmosphere at 37° C.
Cytotoxicity assays were performed on several human breast cancer cell lines treated with test compounds in a 96 well microtiter plate format using the microculture tetrazolium assay^28 modified for use with crystal violet rather than MTT. Briefly, 1–2×10^3 cells were added per well and allowed to culture in a humidified, 5% CO2 atmosphere until they reached approximately 50% confluence. Sterile filtered test compounds were added at various concentrations, and the plates were allowed to culture for an additional 12–36 hours. The growth medium was then removed, and each well was washed twice with 200 μL each of pH 7.4 PBS. […] At the end of 1 hour, the plates were scanned at 570 nm (ref. 405 nm) with a Molecular Devices Corporation microtiter plate reader, and the data was recorded with the SOFTMAX software program. The average of 3 readings was taken for each blank, control, vehicle, and test concentration for statistical data manipulation.

Setting [3] is: Table 3, 100 μM H2O2 + catalase, 24 hr.
Where [4] appears, read: Table 3, 100 μM H2O2 + heat inactivated catalase, 24 hr.
Where [5] appears, read: Table 2, natural versus synthetic, 200 μg/mL, 24 hr.
[6] abbreviates: Table 1, procyanidins purified from cocoa, 200 μg/mL, 24 hrs.
The mark [7] stands for this setting: Table 3, 200 μg/mL + 100 μM H2O2 + catalase, 24 hr.
Where [8] appears, read: Table 3, 200 μg/mL + 100 μM H2O2 + heat inactivated catalase, 24 hr.
The mark [9] stands for this setting: Table 3, 200 μg/mL + 100 μM H2O2, 24 hr.
[10] abbreviates: Table 3, 200 μg/mL + catalase, 24 hr.
[11] abbreviates: Table 3, 200 μg/mL + heat inactivated catalase, 24 hr.

The structures appear in SMILES notation.

As for `OO` [H2O2, hydrogen peroxide, reference compound], in data set [1] (setting [3]), the “% G0/G1” value was determined as 35.20%, the “% G2/M” value was found to be 21.86% and the “% S” value came out at 42.93%. Further, in data set [1] (setting [4]), the “% G0/G1” value was 20.27%, the “% G2/M” value turned out to be 34.25% and the “% S” value came to 45.48%. In addition, in data set [1] (Table 3, 100 μM H2O2, 24 hr), the “% G0/G1” value was found to be 20.32%, the “% G2/M” value is 34.76% and the “% S” value is reported as 44.92%. Also, the “Effect of hydrogen peroxide on cell cycle, in words” value in data set [1] (hydrogen peroxide at levels reported in the literature, see Table 3) is given as “shift in the cell cycle to G2/M with a decrease in G0/G1”.
Regarding `Oc1cc(O)c2c(c1)O[C@H](c1ccc(O)c(O)c1)[C@H](O)[C@H]2c1c(O)cc(O)c2c1O[C@H](c1ccc(O)c(O)c1)[C@H](O)[C@H]2c1c(O)cc(O)c2c1O[C@H](c1ccc(O)c(O)c1)[C@H](O)[C@H]2c1c(O)cc(O)c2c1O[C@H](c1ccc(O)c(O)c1)[C@H](O)[C@H]2c1c(O)cc(O)c2c1O[C@H](c1ccc(O)c(O)c1)[C@H](O)C2` [Synthetic pentamer, epicatechin (4β,8)4-pentamer], the “Increase in G0/G1 arrest, synthetic compared to natural procyanidin” value (shortened to “Increase in G0/G1 arrest, synthetic”) in data set [1] (200 μg/mL, 24 hr) is recorded as “approximately 30%”. In data set [1] (setting [5]), the “% G0/G1” value is listed as 64.15%, the “% G2/M” value is listed as 12.49% and the “% S” value is given as 23.36%. Moreover, in data set [2] (several breast cancer cell lines), the Cell growth inhibition entry is reported as “inhibited cell growth”.
As for `Oc1cc(O)c2c(c1)O[C@H](c1ccc(O)c(O)c1)[C@H](O)[C@H]2c1c(O)cc(O)c2c1O[C@H](c1ccc(O)c(O)c1)[C@H](O)[C@H]2c1c(O)cc(O)c2c1O[C@H](c1ccc(O)c(O)c1)[C@H](O)C2` [Natural trimer, epicatechin (4β,8)2-trimer], in data set [1] (setting [6]), the “% G0/G1” value worked out at 43.22%, the “% G2/M” value was 20.80% and the “% S” value amounted to 35.98%. Further, in data set [1] (setting [5]), the “% G0/G1” value turned out to be 28.46%, the “% G2/M” value is listed as 23.05% and the “% S” value was 48.49%. In addition, the “Effect on cell cycle (G0/G1 arrest), in words” value (“Effect on cell cycle” for short) in data set [1] is “no effect”.
For `Oc1cc(O)c2c(c1)O[C@H](c1ccc(O)c(O)c1)[C@H](O)[C@H]2c1c(O)cc(O)c2c1O[C@H](c1ccc(O)c(O)c1)[C@H](O)[C@H]2c1c(O)cc(O)c2c1O[C@H](c1ccc(O)c(O)c1)[C@H](O)C2` [Synthetic trimer, epicatechin (4β,8)2-trimer], in data set [1] (200 μg/mL, 24 hr), the “Increase in G0/G1 arrest, synthetic” value is “No difference in activity”. Besides, in data set [1] (setting [5]), the “% G0/G1” value is on record as 26.98%, the “% G2/M” value is recorded as 23.45% and the “% S” value is reported as 49.57%.
With `Oc1cc(O)c2c(c1)O[C@H](c1ccc(O)c(O)c1)[C@H](O)[C@H]2c1c(O)cc(O)c2c1O[C@H](c1ccc(O)c(O)c1)[C@H](O)[C@H]2c1c(O)cc(O)c2c1O[C@H](c1ccc(O)c(O)c1)[C@H](O)[C@H]2c1c(O)cc(O)c2c1O[C@H](c1ccc(O)c(O)c1)[C@H](O)[C@H]2c1c(O)cc(O)c2c1O[C@H](c1ccc(O)c(O)c1)[C@H](O)C2` [Pentamers, epicatechin (4β,8)4-pentamer], the “% G0/G1” value in data set [1] (setting [7]) is listed as 48.20%; in data set [1] (setting [8]) it was 39.47%; in data set [1] (setting [9]) it was 42.67%; in data set [1] (setting [10]) it was 41.23%; in data set [1] (setting [11]), 42.89%; in data set [1] (Table 3, 200 μg/mL, 24 hr), 44.94%. The “% G2/M” value in data set [1] (setting [7]) is listed as 20.68%; in data set [1] (setting [8]) it was 37.14%; in data set [1] (setting [9]) it was 38.71%; in data set [1] (setting [10]), 20.12%; in data set [1] (setting [11]), 17.68%; in data set [1] (Table 3, 200 μg/mL, 24 hr) it was 17.05%. Further, the “% S” value is on record as 31.12% in data set [1] (setting [7]); 23.39% in data set [1] (setting [8]); 18.63% in data set [1] (setting [9]); 39.65% in data set [1] (setting [10]); 39.43% in data set [1] (setting [11]); 38.01% in data set [1] (Table 3, 200 μg/mL, 24 hr). Besides, in data set [1], the “Effect on cell cycle” value is listed as “caused a G0/G1 arrest”. The “Cytotoxicity to human breast cancer cell lines” value in data set [2] (purified from cocoa polyphenol extracts or prepared synthetically) is given as “cytotoxicity to human breast cancer cell lines”.
On to `Oc1cc(O)c2c(c1)O[C@H](c1ccc(O)c(O)c1)[C@H](O)[C@H]2c1c(O)cc(O)c2c1O[C@H](c1ccc(O)c(O)c1)[C@H](O)[C@H]2c1c(O)cc(O)c2c1O[C@H](c1ccc(O)c(O)c1)[C@H](O)[C@H]2c1c(O)cc(O)c2c1O[C@H](c1ccc(O)c(O)c1)[C@H](O)C2` [Natural tetramer, epicatechin (4β,8)3-tetramer], for which, in data set [1] (setting [6]), the “% G0/G1” value is recorded as 51.46%, the “% G2/M” value came out at 20.30% and the “% S” value was 28.25%. In data set [1] (setting [5]), the “% G0/G1” value came out at 36.82%, the “% G2/M” value turned out to be 19.02% and the “% S” value was found to be 43.37%. For the same molecule, the “Effect on cell cycle” value in data set [1] was “only a slight effect”.
For the molecule `Oc1cc(O)c2c(c1)O[C@H](c1ccc(O)c(O)c1)[C@H](O)[C@H]2c1c(O)cc(O)c2c1O[C@H](c1ccc(O)c(O)c1)[C@H](O)[C@H]2c1c(O)cc(O)c2c1O[C@H](c1ccc(O)c(O)c1)[C@H](O)[C@H]2c1c(O)cc(O)c2c1O[C@H](c1ccc(O)c(O)c1)[C@H](O)[C@H]2c1c(O)cc(O)c2c1O[C@H](c1ccc(O)c(O)c1)[C@H](O)C2` [Natural pentamer, epicatechin (4β,8)4-pentamer], in data set [1] (setting [5]), the “% G0/G1” value is listed as 45.99%, the “% G2/M” value was 15.76% and the “% S” value is recorded as 38.25%.
For the molecule `Oc1cc(O)c2c(c1)O[C@H](c1ccc(O)c(O)c1)[C@H](O)[C@H]2c1c(O)cc(O)c2c1O[C@H](c1ccc(O)c(O)c1)[C@H](O)[C@H]2c1c(O)cc(O)c2c1O[C@H](c1ccc(O)c(O)c1)[C@H](O)[C@H]2c1c(O)cc(O)c2c1O[C@H](c1ccc(O)c(O)c1)[C@H](O)C2` [Synthetic tetramer, epicatechin (4β,8)3-tetramer], the “Increase in G0/G1 arrest, synthetic” value in data set [1] (200 μg/mL, 24 hr) is on record as “approximately 15%”. Moreover, in data set [1] (setting [5]), the “% G0/G1” value amounted to 43.49%, the “% G2/M” value worked out at 17.03% and the “% S” value came out at 39.39%.
